Data as given in patent US5159081A, “Intermediates of peripherally selective N-carbonyl-3,4,4-trisubstituted piperidine opioid antagonists” (Eli Lilly and Company, priority 1991, dated 1992).
Where a name gives a salt, the structure may show the parent alone. Read-outs that look alike come from different tables or passages of the source.

Legend:
[1] = tested on: peripheral opioid receptors; test: mouse diarrhea test: precipitated diarrhea in morphine-maintained mice (peripheral opioid activity); format: in vivo
mu receptor = target: T1, mu receptor (Rattus norvegicus, UniProt P33535); test: Naloxone [3H] opioid receptor binding assay (mu receptor); set-up: species or system rat (male Sprague Dawley); settings: 20 min; for Ki: rat whole brain minus cerebellum, pH 7.4, 37° C., read-out: Ki
T1 construct: The brain tissue, rat whole brain minus cerebellum for mu was homogenized; from tissue; host or cells: brain minus cerebellum of male Sprague Dawley rats, homogenate fraction

opioid receptor = target: T2, opioid receptor (Mus musculus, UniProt P42866); test: in vivo; set-up: species or system CF-1 male mice; settings: sc
T2 construct: Five CF-1 male mice (Charles River, Portage, MI); from tissue; host or cells: living CF-1 male mice (whole animal, endogenous receptor)

[2] = pH 7.4, read-out: % displacement at 10 nM
[3] = pH 7.4, read-out: % displacement at 100 nM
[4] = AD50 mouse writhing / ED50 mouse diarrhea, higher = greater relative peripheral antagonism
[5] = mouse writhing test, dose of antagonist that reduced inhibition of writhing by 1.25 mg/kg morphine sulfate to 50%, s.c. 20 min before acetic acid, read-out: AD50 (the source's name)
[6] = mouse writhing test, […], s.c. 20 min before acetic acid, read-out: AD50 (the source's name)
[7] = pH 7.4, 100 nM test compound, [3H]naloxone 0.5 nM, […], read-out: % displacement at 100 nM

T1 sequence (P33535 whole entry): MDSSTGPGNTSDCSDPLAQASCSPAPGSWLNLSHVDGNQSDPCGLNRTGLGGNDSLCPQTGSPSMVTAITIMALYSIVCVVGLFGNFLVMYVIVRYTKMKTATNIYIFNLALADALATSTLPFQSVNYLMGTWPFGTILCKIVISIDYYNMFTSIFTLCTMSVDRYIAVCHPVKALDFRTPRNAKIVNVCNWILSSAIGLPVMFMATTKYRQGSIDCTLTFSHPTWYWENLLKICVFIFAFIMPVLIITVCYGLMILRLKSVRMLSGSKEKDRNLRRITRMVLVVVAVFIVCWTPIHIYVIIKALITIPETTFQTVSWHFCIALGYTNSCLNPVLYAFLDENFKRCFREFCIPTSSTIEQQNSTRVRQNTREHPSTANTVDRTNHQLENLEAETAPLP
T2 sequence (P42866 whole entry): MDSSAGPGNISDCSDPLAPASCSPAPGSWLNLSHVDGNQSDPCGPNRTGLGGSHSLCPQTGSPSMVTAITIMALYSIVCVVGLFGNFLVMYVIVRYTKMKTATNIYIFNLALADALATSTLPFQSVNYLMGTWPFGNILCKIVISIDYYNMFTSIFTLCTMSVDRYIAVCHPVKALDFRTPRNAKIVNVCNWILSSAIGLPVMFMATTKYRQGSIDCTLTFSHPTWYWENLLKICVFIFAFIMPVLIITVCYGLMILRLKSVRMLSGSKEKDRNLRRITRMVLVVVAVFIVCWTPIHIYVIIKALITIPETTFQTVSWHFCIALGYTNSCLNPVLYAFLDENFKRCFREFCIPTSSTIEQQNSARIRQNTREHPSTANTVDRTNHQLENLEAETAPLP

| Compound | Ratio (ratio of AD50 to ED50) ([1]; mouse, in vivo) | inhibition at 0.01 µM (mu receptor; [2]) [%] | inhibition at 0.1 µM (mu receptor; [3]) [%] | ED50 (opioid receptor; mouse, read-out: AD50) [mg/kg] | Ratio (ratio of AD50 to ED50) [1, 4] | Ki (mu receptor; […], [3H]naloxone 0.5 nM) [nM] | ED50 (opioid receptor; [5]) [mg/kg] | ED50 (opioid receptor; [6]) [mg/kg] | inhibition at 0.1 µM (mu receptor; [7]) [%] | inhibition at 0.01 µM (mu receptor; pH 7.4, 10 nM test compound, [3H]naloxone 0.5 nM, […], read-out: % displacement at 10 nM) [%] | inhibition at 0.01 µM (mu receptor; pH 7.4, 10 nM test compound, [3H]naloxone 0.5 nM, mu receptor, read-out: % displacement at 10 nM) [%] | inhibition at 0.1 µM (mu receptor; pH 7.4, 100 nM test compound, [3H]naloxone 0.5 nM, mu receptor, read-out: % displacement at 100 nM) [%] |
| --- | --- | --- | --- | --- | --- | --- | --- | --- | --- | --- | --- | --- |
| C[C@H]1CN(CCN(C(=O)CCCC(=O)O)c2ccccc2)CC[C@@]1(C)c1cccc(O)c1 (relative stereo) [Example 20, Trans-5-(phenyl-(2-(4-(3-hydroxyphenyl)-3,4-dimethyl-1-piperidinyl)ethyl)amino)-5-oxopentanoic acid monohydrate] | 35 | 95 | 99 | 2.1 | – | – | – | – | – | – | – | – |
| C[C@H]1CN(CCN(C(=O)CCC(=O)O)C2CCCCC2)CC[C@@]1(C)c1cccc(O)c1 (relative stereo) [Example 22, 4-(Cyclohexyl-(2-(trans-4-(3-hydroxyphenyl)-3,4-dimethyl-1-piperidinyl)ethyl)amino)-4-oxobutanoic acid monohydrate] | – | 51 | 93 | – | 63 | 3.59 | 1.25 | – | – | – | – | – |
| C[C@H]1CN(CCN(C(=O)CCCC(=O)O)C2CCCCC2)CC[C@@]1(C)c1cccc(O)c1 (relative stereo) [Example 23, 5-(Cyclohexyl-(2-(trans-4-(3-hydroxyphenyl)-3,4-dimethyl-1-piperidinyl)ethyl)amino)-5-oxopentanoic acid monohydrate] | – | 77 | 100 | – | > 5 | 4.38 | > 1.25 | – | – | – | – | – |
| C[C@H]1CN(CCCN(C(=O)CCCC(=O)O)C2CCCCC2)CC[C@@]1(C)c1cccc(O)c1 (relative stereo) [Example 25, 5-(cyclohexyl-(3-(trans-4-(3-hydroxyphenyl)-3,4-dimethyl-1-piperidinyl)propyl)amino)-5-oxopentanoic acid] | – | 77 | 93 | – | 10 | 1.18 | – | 0.61 | – | – | – | – |
| C[C@H]1CN(CCN(CC2CCCCC2)C(=O)CCC(=O)O)CC[C@@]1(C)c1cccc(O)c1 (relative stereo) [Example 26, 4-(cyclohexylmethyl-(2-(trans-4-(3-hydroxyphenyl)-3,4-dimethyl-1-piperidinyl)ethyl)amino)-4-oxobutanoic acid monohydrate] | – | 73 | 100 | – | 72 | 1.91 | – | 3.6 | – | – | – | – |
| C[C@H]1CN(CCCN(CC2CCCCC2)C(=O)CCCC(=O)O)CC[C@@]1(C)c1cccc(O)c1 (relative stereo) [Example 27, Trans-5-(cyclohexylmethyl(3-(4-(3-hydroxyphenyl)-3,4-dimethyl-1-piperidinyl)propyl)amino)-5-oxopentanoic acid monohydrate] | – | 63 | 93 | – | 61 | 8 | – | 11 | – | – | – | – |
| CC(C)OC(=O)CCC(=O)N(CCN1CC[C@@](C)(c2cccc(O)c2)[C@@H](C)C1)C1CCCCC1 (relative stereo) [Example 30, 4-(Cyclohexyl-(2-(trans-4-(3-hydroxyphenyl)-3,4-dimethyl-1-piperidinyl)ethyl)amino)-4-oxobutanoic acid 1-methyl-ethyl ester] | – | 79 | 96 | – | > 40 | 11 | – | 12.4 | – | – | – | – |
| CCCOC(=O)CCC(=O)N(CCN1CC[C@@](C)(c2cccc(O)c2)[C@@H](C)C1)C1CCCCC1 (relative stereo) [Example 31, 4-(Cyclohexyl-(2-(trans-4-(3-hydroxyphenyl)-3,4-dimethyl-1-piperidinyl)ethyl)amino)-4-oxobutanoic acid propyl ester] | – | 82 | – | – | > 200 | 2.52 | – | > 40 | 97 | – | – | – |
| CCOC(=O)CCCC(=O)N(CCCN1CC[C@@](C)(c2cccc(O)c2)[C@@H](C)C1)C1CCCCC1 (relative stereo) [Example 33, 5-(Cyclohexyl-(3-(trans-4-(3-hydroxyphenyl)-3,4-dimethyl-1-piperidinyl)propyl)amino)-5-oxopentanoic acid ethyl ester monohydrochloride] | – | – | 99 | – | 122 | 0.26 | – | 3.67 | – | 83 | – | – |
| C[C@H]1CN(CCN(C(=O)CCC(N)=O)C2CCCCC2)CC[C@@]1(C)c1cccc(O)c1 (relative stereo) [Example 35, N-Cyclohexyl-N-(2-(trans-4-(3-hydroxyphenyl)-3,4-dimethyl-1-piperidinyl)ethyl)butanediamide monohydrochloride] | – | 80 | 99 | – | > 3 | 2.15 | > 1.25 | – | – | – | – | – |
| C[C@H]1CN(CCCN(C(=O)CCCC(N)=O)C2CCCCC2)CC[C@@]1(C)c1cccc(O)c1 (relative stereo) [Example 37, N-(3-(trans-4-(3-hydroxyphenyl)-3,4-dimethyl-1-piperidinyl)propyl)-N-cyclohexylpentanediamide monohydrochloride monohydrate] | – | 88 | 100 | – | 256 | 0.61 | – | 12.8 | – | – | – | – |
| CNC(=O)CNC(=O)CC(=O)N(CCN1CC[C@@](C)(c2cccc(O)c2)[C@@H](C)C1)C1CCCCC1 (relative stereo) [Example 38, N-cyclohexyl-N-(2-(trans-4-(3-hydroxyphenyl)-3,4-dimethyl-1-piperidinyl)ethyl)-N'-(2-(methylamino)-2-oxoethyl)propanediamide monohydrochloride] | – | 79 | – | – | 1605 | 2.98 | – | 28.9 | 98 | – | – | – |
| CC(C)CC(=O)NCCCC(=O)N(CCN1CC[C@@](C)(c2cccc(O)c2)[C@@H](C)C1)C1CCCCC1 (relative stereo) [Example 40, hydrochloride] | 3 | 87 | 100 | – | – | 1.16 | – | 2.2 | – | – | – | – |
| CCOC(=O)CCCC(=O)NC(CCN1CC[C@@](C)(c2cccc(O)c2)[C@@H](C)C1)CC(C)C (single isomer, unassigned) [Example 3A, 5-((1-(2-(trans-4-(3-hydroxyphenyl)-3,4-dimethyl-1-piperidinyl)ethyl)-3-methylbutyl)amino)-5-oxopentanoic acid ethyl ester monohydrochloride] | – | 100 | 100 | – | 89 | 0.3 | – | 14.2 | – | – | – | – |
| CCOC(=O)CCCC(=O)NC(CCN1CC[C@@](C)(c2cccc(O)c2)[C@@H](C)C1)CC(C)C (stereo in doubt) [Example 3B, 5-((1-(2-(trans-4-(3-hydroxyphenyl)-3,4-dimethyl-1-piperidinyl)ethyl)-3-methylbutyl)amino)-5-oxopentanoic acid ethyl ester monohydrochloride] | – | 93 | 99 | – | 111 | 0.86 | – | 15.5 | – | – | – | – |
| C[C@H]1CN(CCC(NC(=O)CCCC(=O)O)C2CCCCC2)CC[C@@]1(C)c1cccc(O)c1 (stereo in doubt) [Example 5, 5-((3-(trans-4-(3-hydroxyphenyl)-3,4-dimethyl-1-piperidinyl)-1-cyclohexylpropyl)amino)-5-oxo-pentanoic acid monohydrochloride monohydrate] | – | 100 | 100 | – | > 1666 | 0.3 | – | > 20 | – | – | – | – |
| CC(=O)NC(CCN1CC[C@@](C)(c2cccc(O)c2)[C@@H](C)C1)c1ccccc1 (stereo in doubt) [Example 6, N-(3-(trans-4-(3-hydroxyphenyl)-3,4-dimethyl-1-piperidinyl)-1-phenylpropyl)acetamide] | – | 82 | 94 | – | 428 | 6.49 | – | 30 | – | – | – | – |
| C[C@H]1CN(CCC(CC2CCCCC2)NC(=O)CCCC(=O)O)CC[C@@]1(C)c1cccc(O)c1 (stereo in doubt) [Example 7, 5-((1-(cyclohexylmethyl)-3-(trans-4-(3-hydroxyphenyl)-3,4-dimethyl-1-piperidinyl)propyl)amino)-5-oxopentanoic acid monohydrochloride monohydrate] | – | 99 | 100 | – | 19 | 0.63 | – | 8.62 | – | – | – | – |
| CCOC(=O)CCCC(=O)N[C@@H](CC1CCCCC1)CN1CC[C@](C)(c2cccc(O)c2)[C@H](C)C1 [Example 51] | – | 73 | 97 | – | – | – | – | > 40 | – | – | – | – |
| C[C@H]1CN(C[C@H](CC2CCCCC2)NC(=O)CCCC(=O)OCC(=O)N(C)C)CC[C@@]1(C)c1cccc(O)c1 [Example 64] | – | 81 | 94 | – | – | 1.51 | – | 13.5 | – | – | – | – |
| CC(=O)OC(C)OC(=O)CCCC(=O)N[C@@H](CC1CCCCC1)CN1CC[C@@](C)(c2cccc(O)c2)[C@@H](C)C1 (stereo partly drawn) [Example 67] | – | – | – | – | – | – | – | > 40 | – | – | 73 | 95 |
